Reference: patent US20260083721A1, “7-CYANO-8-HYDROXYQUINOLINE DERIVATIVE, PREPARATION METHOD THEREFOR AND MEDICAL USE THEREOF” (Jiangsu Yahong Meditech Co., Ltd., priority 2022, published 2026)
Values after ≈ are worked out from the molar mass of the structure shown.

Tests used:
Format in all cases: cell-based
[1] = tested on: carbapenem-resistant Acinetobacter baumannii 18-W15-036; experiment: MIC by broth microdilution, carbapenem-resistant A. baumannii 18-W15-036; settings: carbapenem-resistant clinical isolate, CAMHB, 35±2° C., 20 hours, drug concentration range 128 mg/L to 0.06 mg/L, read-out: inhibitory MIC value, Acinetobacter baumannii 18-W15-036
From the text: (§1) The test bacteria were 2 strains of carbapenem-resistant Escherichia coli (18-W09-093 and 18-W18-070), 2 strains of carbapenem-resistant Acinetobacter baumannii (18-W15-036 and 18-W13-081), 1 strain of methicillin-resistant Staphylococcus aureus (19-W03-012) and 1 strain of methicillin-sensitive Staphylococcus aureus (19-W01-012), isolated clinically, with duplicate strains isolated from the same patient being excluded. Besides, there were 3 quality control strains, namely Escherichia co/i ATCC 25922, Acinetobacter baumannii ATCC 19606, and Staphylococcus aureus ATCC 29213. The above strains were all provided by Shanghai GenoMatrix Medical Laboratory Co., Ltd.
(§2) The MIC of the compound of the present invention on clinically isolated strains was assayed by the broth microdilution method according to the relevant documents from the Clinical and Laboratory Standards Institute (CLSI) of United States. • 3.1 Preparation of antimicrobial drugs: the compounds of the present invention were all dissolved with DMSO. The drug concentration ranged from 128 mg/L to 0.06 mg/L. • 3.2 Culture medium: cation adjusted Mueller-Hinton broth (CAMHB) was used. • 3.3 Inoculation amount of bacteria: the isolated pure culture of test bacteria cultured overnight was adjusted to 0.5 McFarland turbidity by direct colony suspension and diluted 100 folds, and the final inoculation amount was 10^5 CFU/mL. • 3.4 Culture conditions: the bacteria were cultured in air at 35±2° C. for 20 hours.
(§3) The results of the drug sensitivity test were interpretated according to the standards of CLSI M100-ED29:2019.
(§4) The statistical analysis of the results of the drug sensitivity test was done by using WHONET version 5.6 software.

[2] = tested on: Escherichia coli ATCC25922; experiment: MIC by broth microdilution, E. coli ATCC 25922; settings: quality control strain, CAMHB, 35±2° C., 20 hours, drug concentration range 128 mg/L to 0.06 mg/L, read-out: inhibitory MIC value, Escherichia coli ATCC25922
From the text: as §1, §2, §3, §4

[3] = tested on: Acinetobacter baumannii ATCC19606; experiment: MIC by broth microdilution, A. baumannii ATCC 19606; settings: quality control strain, CAMHB, 35±2° C., 20 hours, drug concentration range 128 mg/L to 0.06 mg/L, read-out: inhibitory MIC value, Acinetobacter baumannii ATCC19606
From the text: as §1, §2, §3, §4

[4] = tested on: methicillin-resistant Staphylococcus aureus 19-W03-012; experiment: MIC by broth microdilution, methicillin-resistant S. aureus 19-W03-012; settings: methicillin-resistant clinical isolate, CAMHB, 35±2° C., 20 hours, drug concentration range 128 mg/L to 0.06 mg/L, read-out: inhibitory MIC value, Staphylococcus aureus 19-W03-012
From the text: as §1, §2, §3, §4

[5] = tested on: carbapenem-resistant Escherichia coli 18-W18-070; experiment: MIC by broth microdilution, carbapenem-resistant E. coli 18-W18-070; settings: carbapenem-resistant clinical isolate, CAMHB, 35±2° C., 20 hours, drug concentration range 128 mg/L to 0.06 mg/L, read-out: inhibitory MIC value, Escherichia coli 18-W18-070
From the text: as §1, §2, §3, §4

[6] = tested on: carbapenem-resistant Escherichia coli 18-W09-093; experiment: MIC by broth microdilution, carbapenem-resistant E. coli 18-W09-093; settings: carbapenem-resistant clinical isolate, CAMHB, 35±2° C., 20 hours, drug concentration range 128 mg/L to 0.06 mg/L, read-out: inhibitory MIC value, Escherichia coli 18-W09-093
From the text: as §1, §2, §3, §4

[7] = tested on: methicillin-sensitive Staphylococcus aureus 19-W01-012; experiment: MIC by broth microdilution, methicillin-sensitive S. aureus 19-W01-012; settings: methicillin-sensitive clinical isolate, CAMHB, 35±2° C., 20 hours, drug concentration range 128 mg/L to 0.06 mg/L, read-out: inhibitory MIC value, Staphylococcus aureus 19-W01-012
From the text: as §1, §2, §3, §4

[8] = tested on: carbapenem-resistant Acinetobacter baumannii 18-W13-081; experiment: MIC by broth microdilution, carbapenem-resistant A. baumannii 18-W13-081; settings: carbapenem-resistant clinical isolate, CAMHB, 35±2° C., 20 hours, drug concentration range 128 mg/L to 0.06 mg/L, read-out: inhibitory MIC value, Acinetobacter baumannii 18-W13-081
From the text: as §1, §2, §3, §4

[9] = tested on: Staphylococcus aureus ATCC29213; experiment: MIC by broth microdilution, S. aureus ATCC 29213; settings: quality control strain, CAMHB, 35±2° C., 20 hours, drug concentration range 128 mg/L to 0.06 mg/L, read-out: inhibitory MIC value, Staphylococcus aureus ATCC29213
From the text: as §1, §2, §3, §4

Structure (SMILES)	MIC [1] [µg/mL]	MIC [2] [µg/mL]	MIC [3] [µg/mL]	MIC [4] [µg/mL]	MIC [5] [µg/mL]	MIC [6] [µg/mL]	MIC [7] [µg/mL]	MIC [8] [µg/mL]	MIC [9] [µg/mL]
N#Cc1ccc2ccc(F)nc2c1O [Compound 4, 2-fluoro-7-cyano-8-hydroxyquinoline]	8 (≈ 42.5 µM)	8 (≈ 42.5 µM)	4 (≈ 21.3 µM)	16 (≈ 85 µM)	16 (≈ 85 µM)	16 (≈ 85 µM)	16 (≈ 85 µM)	8 (≈ 42.5 µM)	16 (≈ 85 µM)
Cc1ccnc2c(O)c(C#N)cc(Cl)c12 [Compound 5, 4-methyl-5-chloro-7-cyano-8-hydroxyquinoline]	8 (≈ 36.6 µM)	8 (≈ 36.6 µM)	4 (≈ 18.3 µM)	2 (≈ 9.15 µM)	16 (≈ 73.2 µM)	32 (≈ 146 µM)	4 (≈ 18.3 µM)	2 (≈ 9.15 µM)	4 (≈ 18.3 µM)
N#Cc1cc(Cl)c2cccnc2c1O [Compound 9, 5-chloro-7-cyano-8-hydroxyquinoline]	16 (≈ 78.2 µM)	16 (≈ 78.2 µM)	4 (≈ 19.5 µM)	8 (≈ 39.1 µM)	32 (≈ 156 µM)	32 (≈ 156 µM)	8 (≈ 39.1 µM)	8 (≈ 39.1 µM)	8 (≈ 39.1 µM)
N#Cc1cc(C(=O)O)c2cccnc2c1O [Compound 8, 7-cyano-8-hydroxyquinoline-5-carboxylic acid]	> 64	> 64	> 64	> 64	> 64	> 64	> 64	> 64	> 64
N#Cc1cc(C(F)(F)F)c2cccnc2c1O [Compound 2, 5-trifluoromethyl-7-cyano-8-hydroxyquinoline]	64 (≈ 269 µM)	32 (≈ 134 µM)	16 (≈ 67.2 µM)	4 (≈ 16.8 µM)	64 (≈ 269 µM)	64 (≈ 269 µM)	4 (≈ 16.8 µM)	32 (≈ 134 µM)	8 (≈ 33.6 µM)

Further molecules by falling MIC [1], results first:

MIC [1] [µg/mL]	MIC [2] [µg/mL]	MIC [3] [µg/mL]	MIC [4] [µg/mL]	MIC [5] [µg/mL]	MIC [6] [µg/mL]	MIC [7] [µg/mL]	MIC [8] [µg/mL]	MIC [9] [µg/mL]	Structure (SMILES)
32 (≈ 134 µM)	32 (≈ 134 µM)	2 (≈ 8.37 µM)	0.5 (≈ 2.09 µM)	> 64	> 64	0.5 (≈ 2.09 µM)	4 (≈ 16.7 µM)	1 (≈ 4.18 µM)	N#Cc1c(Cl)c(Cl)c2cccnc2c1O [Compound 7, 5,6-dichloro-7-cyano-8-hydroxyquinoline]
32 (≈ 122 µM)	8 (≈ 30.4 µM)	4 (≈ 15.2 µM)	2 (≈ 7.6 µM)	32 (≈ 122 µM)	32 (≈ 122 µM)	4 (≈ 15.2 µM)	4 (≈ 15.2 µM)	4 (≈ 15.2 µM)	Cc1ccnc2c(O)c(C#N)cc(Br)c12 [Compound 6, 4-methyl-5-bromo-7-cyano-8-hydroxyquinoline]
16 (≈ 64.2 µM)	8 (≈ 32.1 µM)	4 (≈ 16.1 µM)	4 (≈ 16.1 µM)	32 (≈ 128 µM)	32 (≈ 128 µM)	4 (≈ 16.1 µM)	4 (≈ 16.1 µM)	4 (≈ 16.1 µM)	N#Cc1cc(Br)c2cccnc2c1O [Compound 1, 5-bromo-7-cyano-8-hydroxyquinoline]
8 (≈ 43.4 µM)	8 (≈ 43.4 µM)	4 (≈ 21.7 µM)	4 (≈ 21.7 µM)	16 (≈ 86.9 µM)	8 (≈ 43.4 µM)	4 (≈ 21.7 µM)	4 (≈ 21.7 µM)	4 (≈ 21.7 µM)	Cc1cc(C#N)c(O)c2ncccc12 [Compound A, reference compound]
8 (≈ 43.4 µM)	8 (≈ 43.4 µM)	8 (≈ 43.4 µM)	8 (≈ 43.4 µM)	16 (≈ 86.9 µM)	16 (≈ 86.9 µM)	8 (≈ 43.4 µM)	8 (≈ 43.4 µM)	8 (≈ 43.4 µM)	Cc1ccnc2c(O)c(C#N)ccc12 [Compound 3, 4-methyl-7-cyano-8-hydroxyquinoline]
